# In patent US20260151378A1, “SALT AND CRYSTAL FORM OF HETEROCYCLIC DERIVATIVE INHIBITOR, AND PREPARATION METHOD THEREFOR AND USE THEREOF” (SHANGHAI HANSOH BIOMEDICAL CO., LTD., priority 2022, published 2026):
# Key:
# [1] = system: BRCA2 Knockout DLD-1 cells; test: Inhibition of proliferation of BRCA2 Knockout DLD-1 cells (CellTiter-Glo); type: cell-based; details: Homo sapiens, about 144 hours
# Experimental: When using RPMI1640 medium containing 10% FBS to culture BRCA2 Knockout DLD-1 cells to an appropriate cell density, the cells were collected and adjusted with complete medium to an appropriate cell concentration, the cell suspension was spread in a 96-well plate, with 90 μL per well, and the plate was placed in a 37° C., 5% CO2 incubator for overnight adherence. Compound solutions with different concentrations were prepared with DMSO and the culture medium, and a vehicle control was prepared. The compound solutions were added to the 96-well plate, with 10 μL per well, and the plate was placed in a 37° C., 5% CO2 incubator for continued culturing for about 144 hours. CellTiter-Glo solution was added and uniformly mixed by shaking. After incubation for 10-30 minutes in the dark, reading was carried out with Synergy H1 or Envision microplate reader.
# The inhibition rate was calculated from the luminescence signal value, and the concentration and inhibition rate were subjected to non-linear regression curve fitting by using Graphpad Prism software to obtain an IC50 value. The inhibitory effects of the compounds of some examples of the present disclosure on the proliferation activity of BRCA2 Knockout DLD-1 cells were as shown in the following table: […]
# [2] = system: human colorectal cancer cell strain DLD-1 BRCA2−/−; test: In vivo pharmacodynamics in DLD-1 BRCA2−/− subcutaneous graft tumor model; design: species or system BALB/c nude mice; details: DLD-1 BRCA2−/− nude mice, oral, once/day, 28 days
# Experimental: • a. […] The cells were passaged every three days, and after passage, the cells were placed in a CO2 incubator to continue the culture. This process was repeated until the cell number meets the needs of in vivo efficacy. • c. The cultured cells were collected, counted using a full-automatic cell counter, resuspended with PBS according to the counting results, and prepared into a cell suspension (at a density of 5×10^7/mL), which was then placed in an ice box for use. • a. Nude mouse was marked with a disposable universal ear tag for mice and rats before inoculation. • b. At the time of inoculation, the cell suspension was mixed well, 0.1-1 mL of cell suspension was taken with a 1 mL syringe, and after removing air bubbles, the syringe was placed on an ice bag until use. • c. The nude mouse was secured with the left hand. […] The nude mice were inoculated successively (inoculation with 0.1 mL of cell suspension per mouse). • a. […] According to the weight of tumor-bearing mice and the size of the tumor, the mice were grouped by random grouping. • c. […] Tumors were measured and weighed twice a week after starting administration of test drugs. • e. […] The data was processed with software such as Excel.
# [3] = Solid stability experiment; type: physicochemical
# Experimental: About 1 mg of crystalline forms of different salts were taken and investigated at a high temperature of 60° C., a high humidity of RH=92.5%, and a high temperature and high humidity of 50° C. and 75% RH for 7 and 14 days. The changes of related substances were calculated for the crystalline forms of the salts by a chromatographic peak area normalization method.
# [4] = PK study of crystalline forms of different salts in rats; type: in vivo; details: SD rats, gavage, 0.5% HPMC K4M
# [5] = Solubility experiment in different vehicles; type: physicochemical; details: 37° C., 2 hours
# [6] = Hygroscopicity determination; type: physicochemical; details: for hygroscopicity / weight gain after moisture absorption: RH 80%; for crystalline form transformation (XRPD pattern): after 1 cycle of moisture absorption and desorption, 0-95% relative humidity
# Experimental: The crystalline forms of the salt of the compound were placed in saturated water vapor at different relative humidities to reach a dynamic equilibrium between the crystalline forms of the salt of the compound and the water vapor, and the weight gain percentage after moisture absorption after equilibrium was calculated.
# [7] = Polymorphism study: slurrying of salt crystalline forms in solvents; type: physicochemical; details: 7 days
# [8] = FaSSGF (simulated gastric fluid, fasted)
# [9] = FaSSIF (simulated intestinal fluid, fasted)
# [10] = FeSSIF (simulated intestinal fluid, fed)
compound,measurement,setting,value
CCc1cc2ncc(CN3CC=C(c4ccc(C(=O)NCC#N)nc4)CC3)cc2[nH]c1=O [Example 15],IC50,[1],2.4 nM
CCc1cc2ncc(CN3CC=C(c4ccc(C(=O)NC5CC5)nc4)CC3)cc2[nH]c1=O [Example 2],animal weight,[2],without significant reduction of the animal weight
CCc1cc2ncc(CN3CCC(c4ccc(C(=O)NC)nc4)=C(F)C3)cc2[nH]c1=O [Example 19],IC50,[1],1.5 nM
"1′-((7-ethyl-6-carbonyl-5,6-dihydro-1,5-diazanaphth-3-yl)methyl)-N-methyl-1′,2′,3′,6′-tetrahydro-[3,4′-bipyridinyl]-6-carboxamide [p-toluenesulfonate dihydrate crystalline Form A]",Stability result (total impurity increase %),"[3]; 50° C., 75% RH, 7 days",<0.03%
same,Stability result (total impurity increase %),"[3]; 50° C., 75% RH, 14 days",<0.03%
same,Stability result (total impurity increase %),"[3]; 60° C., 7 days",<0.03%
same,Stability result (total impurity increase %),"[3]; 60° C., 14 days",<0.03%
same,Stability result (total impurity increase %),"[3]; 92.5% RH, 7 days",0.08%
same,Stability result (total impurity increase %),"[3]; 92.5% RH, 14 days",<0.03%
same,AUC0-t,[4]; 5 mpk,145.036 µg·h/mL
same,AUC0-∞,[4]; 5 mpk,146.622 µg·h/mL
same,Cmax,[4]; 5 mpk,17433 ng/mL
same,t1/2,[4]; 5 mpk,3.8 h
same,F %,"[4]; 5 mpk, 5 mg/kg",92%
same,MRT0-∞,"[4]; 5 mpk, 5 mg/kg",5.4 h
same,tmax,"[4]; 5 mpk, 5 mg/kg",1.0 h
same,AUC0-t,[4]; 20 mpk,558.44 µg·h/mL
same,AUC0-∞,[4]; 20 mpk,587.652 µg·h/mL
same,Cmax,[4]; 20 mpk,53400 ng/mL
same,F %,[4]; 20 mpk,93%
same,MRT0-∞,[4]; 20 mpk,7.5 h
same,t1/2,[4]; 20 mpk,5.7 h
same,tmax,[4]; 20 mpk,4.0 h
same,solubility,[5]; [8],>437 µg/mL
same,solubility,[5]; [9],147 µg/mL
same,solubility,[5]; [10],>340 µg/mL
same,solubility,[5]; Water,308 µg/mL
same,hygroscopicity,[6],weak hygroscopicity
same,weight gain after moisture absorption,[6],1.906%
same,crystalline form transformation (XRPD pattern),[6],no crystalline form transformation occurred
same,Slurrying result,"[7]; 1,4-Dioxane, 40° C.",Still as hydrate crystalline
same,Slurrying result,"[7]; 2-Butanone, 40° C.",Still as hydrate crystalline
same,Slurrying result,"[7]; 2-Methyltetrahydrofuran, 40° C.",Still as hydrate crystalline
same,Slurrying result,"[7]; Acetone, 40° C.",p-Toluenesulfonate crystalline
same,Slurrying result,"[7]; Acetonitrile, 40° C.",p-Toluenesulfonate crystalline
same,Slurrying result,"[7]; Dichloromethane, 40° C.",p-Toluenesulfonate crystalline
same,Slurrying result,"[7]; Ethanol, 40° C.",p-Toluenesulfonate crystalline
same,Slurrying result,"[7]; Ethyl acetate, 40° C.",Still as hydrate crystalline
same,Slurrying result,"[7]; Ethyl formate, 40° C.",p-Toluenesulfonate crystalline
same,Slurrying result,"[7]; Isopropanol, 40° C.",Still as hydrate crystalline
same,Slurrying result,"[7]; Methyl tert-butyl ether, 40° C.",Still as hydrate crystalline
same,Slurrying result,"[7]; Tetrahydrofuran, 40° C.",Still as hydrate crystalline
same,Slurrying result,"[7]; Toluene, 40° C.",Still as hydrate crystalline
same,Slurrying result,"[7]; Trichloromethane, 40° C.",p-Toluenesulfonate crystalline
same,Slurrying result,"[7]; methanol, 40° C.",p-Toluenesulfonate crystalline
CCc1cc2ncc(CN3CC=C(c4ccc(C(=O)NCC(F)(F)F)nc4)CC3)cc2[nH]c1=O [Example 20],IC50,[1],1.4 nM
"1′-((7-ethyl-6-carbonyl-5,6-dihydro-1,5-diazanaphth-3-yl)methyl)-N-methyl-1′,2′,3′,6′-tetrahydro-[3,4′-bipyridinyl]-6-carboxamide [sulfate crystalline Form A]",Stability result (total impurity increase %),"[3]; 50° C., 75% RH, 7 days",0.12%
same,Stability result (total impurity increase %),"[3]; 50° C., 75% RH, 14 days",0.56%
same,Stability result (total impurity increase %),"[3]; 60° C., 7 days",0.76%
same,Stability result (total impurity increase %),"[3]; 60° C., 14 days",0.66%
same,Stability result (total impurity increase %),"[3]; 92.5% RH, 7 days",0.17%
same,Stability result (total impurity increase %),"[3]; 92.5% RH, 14 days",0.06%
same,AUC0-t,"[4]; 5 mpk, 5 mg/kg",118.078 µg·h/mL
same,AUC0-∞,"[4]; 5 mpk, 5 mg/kg",119.241 µg·h/mL
same,Cmax,"[4]; 5 mpk, 5 mg/kg",14467 ng/mL
same,F %,"[4]; 5 mpk, 5 mg/kg",75%
same,MRT0-∞,"[4]; 5 mpk, 5 mg/kg",5.3 h
same,t1/2,"[4]; 5 mpk, 5 mg/kg",3.7 h
same,tmax,"[4]; 5 mpk, 5 mg/kg",2.0 h
same,solubility,[5]; [8],>466 µg/mL
same,solubility,[5]; [9],133 µg/mL
same,solubility,[5]; [10],>347 µg/mL
same,solubility,[5]; Water,696 µg/mL
same,hygroscopicity,[6],weak hygroscopicity
same,weight gain after moisture absorption,[6],1.785%
same,crystalline form transformation (XRPD pattern),[6],no crystalline form transformation occurred
same,Slurrying result,"[7]; 1,4-Dioxane, 50° C.",Crystalline Form A
same,Slurrying result,"[7]; 2-Me—THF, 50° C.",Crystalline Form A
same,Slurrying result,"[7]; ACN, 50° C.",Crystalline Form A
same,Slurrying result,"[7]; Acetone, 50° C.",Crystalline Form A
same,Slurrying result,"[7]; EA, 50° C.",Crystalline Form A
same,Slurrying result,"[7]; EtOH, 50° C.",Crystalline Form A
same,Slurrying result,"[7]; MeOH, 50° C.",Crystalline Form A
same,Slurrying result,"[7]; THF, 50° C.",Crystalline Form A
same,Slurrying result,"[7]; Toluene, 50° C.",Crystalline Form A
CCc1cc2ncc(CN3CC=C(c4ccc(C(=O)NC)nc4Cl)CC3)cc2[nH]c1=O [Example 13],IC50,[1],1 nM
CCc1cc2ncc(CN3CC=C(c4ccc(C(=O)NC5(C#N)CC5)nc4)CC3)cc2[nH]c1=O [Example 16],IC50,[1],2.7 nM
CNC(=O)c1ccc(C2=CCN(Cc3cnc4cc(C(F)(F)F)c(=O)[nH]c4c3)CC2)cn1 [Example 21],IC50,[1],5.1 nM
CCc1cc2ncc(CN3CC=C(c4ccc(C(=O)NOC)nc4)CC3)cc2[nH]c1=O [Example 3],IC50,[1],3.2 nM
